In assay [1] the test system is Pentetrazol-induzierte Krämpfe. Put plainly: Antagonism against pentetrazol-induced convulsions (Swinyard). It counts as in vivo, Maus. The note with it: p.o., pentetrazol 125 mg/kg s.c. 1 h after test substance, tonic extensor convulsions; for ED50: Mus musculus, po, 1 h, read-out: Ptz Maus ED 50. The text has this: (§1) Die Krampf-verhindernde (antikonvulsive) Wirkung der erfindungsgemäßen Verbindungen wurde an Mäusen gegen Pentetrazol- und gegen Elektroschock- induzierte Krämpfe in der Anordnung von SWINYARD geprüft.
1. Antagonismus gegen Pentetrazol-induzierte Krämpfe (Maus)
Methode (E.A.SWINYARD, J.Pharmacol.Exp.Ther. 106, (1952), 319-330):
Gruppen von 10 männlichen Mäusen (Stamm: NMRI, SPF-71, KF) im Gewicht von 18-22 g werden in diesem Versuch verwendet. Die zu prüfenden Substanzen werden in einer 1 %-igen Aufschwemmung von ®Tylose (Methyl-hydroxy-ethyl-cellulose) in Wasser suspendiert und per Schlundsonde in einem Volumen von 10 ml/kg Körpergewicht oral verabreicht. Die Kontrollgruppe erhält ein entsprechendes Volumen Tylosesuspension ohne Prüfsubstanz. Pentetrazol (Cardiazol®) wird in wässriger Lösung in einer Dosis von 125 mg/kg Körpergewicht 1 Stunde nach Verabreichung der Prüfsubstanzen subcutan injiziert. Diese Dosis erzeugt bei 90-100 % der Kontrolltiere innerhalb der Beobachtungszeit von 60 Minuten nach der Injektion tonische Extensorkrämpfe der hinteren Extremitä-ten. Als Schutzwirkung der Prüfsubstanz wird gewertet, wenn die Anzahl der krampfenden Tiere gegenüber der Kontrollgruppe vermindert ist. Bei vorhandener Schutzwirkung der Prüfsubstanz wird eine mittlere effektive Dosis (ED-50) grafisch (Litchfield and Wilcoxon) oder rechnerisch (Probitanalyse) ermittelt.

Assay [2] relates to Elektroschock-induzierte Krämpfe. The experiment in a line: Antagonism against electroshock-induced convulsions (Swinyard). Type of assay: in vivo. The note with it: Mus musculus, po, electroshock via corneal electrodes 1 h after test substance, tonic extensor convulsions; read-out: ECS Maus ED 50.
Text: as §1
2. Antagonismus gegen Elektroschock-induzierte Krämpfe (Maus).
Methode (E.A.SWINYARD, In: Experimental Models of Epilepsy, Raven Press, New York, 1972, p. 433-458):
Gruppen von 6 männlichen Mäusen (Stamm: NMRI, SPF-71, KF) im Gewicht von 18-22 g werden in diesem Versuch verwendet. Die zu prüfenden Substanzen werden in einer 1 %igen Aufschwemmung von Tylose (Methyl-hydroxy-ethyl-cellulose) in Wasser suspendiert und per Schlundsonde in einem Volumen von 10 ml/kg Körpergewicht oral verabreicht. Die Kontrollgruppe erhält ein entsprechendes Volumen Tylosesuspension ohne Prüfsubstanz. Eine Stunde nach Prüfsubstanzgabe wird den Tieren über Cornea-Elektroden ein Elektroschock verabreicht (Stromstärke 12-22 mA, Dauer 0,2 sec, 50 Hz), nachdem vorher an einer zweiten Kontrollgruppe die Stromstärke ermittelt worden war, die bei 100 % der Tiere eine tonischen Extensorkrampf der hinteren Extremitäten hervorruft. Die Anzahl der durch die Prüfsubstanz vor einem Extensorkrampf geschützten Tiere dient als Mass der antikonvulsiven Wirkung in diesem Test. Bei vorhandener Schutzwirkung der Prüfsubstanz wird eine mittlere effektive Dosis (ED-50) grafisch (Litchfield and Wilcoxon) oder rechnerisch (Probitanalyse) ermittelt.

The test system of assay [3] is Wistar Ratten. Put plainly: Lick-shock-conflict test (Vogel). Type of assay: in vivo, Ratte. To be noted: Rattus norvegicus, po; for minimal effective dose: lowest dose with significant increase of lickings in the shock phase, read-out: Lick-Sh. Ratte MED; for change in vivo at 10 mg/kg: 10 mg/kg p.o.; for change in vivo at 10 mg/kg / change in vivo at 30 mg/kg: increase versus control group, read-out: Lick-Sh. Ratte prozentuale Zunahme der angenommenen Belohnungen (Wasser); for change in vivo at 30 mg/kg: 30 mg/kg p.o. The text has this: (§2) Die Angst-lösende (anxiolytische Wirkung) der erfindungsgemäßen Verbindungen wurde im "Lick-shock-conflict- Test" nach VOGEl und im "Geller-Seifter-Konflikt-Test" nach GELLER und SEIFTER an WISTAR-Ratten geprüft.
3. Lick-shock-conflict-Test
Methode (VOGEL, J.R., Psychopharmacologia 21, (1971), 1-7
Männliche Wistar Ratten aus eigener Aufzucht (SPF Hattersheim) im Gewicht zwischen 90 und 120 g werden verwendet. Den Tieren wird für 48 Stunden vor Testbeginn das Trinkwasser entzogen. Zum Test werden die Tiere in eine Plastikbox (14x12x28 cm, BxTxH) gesetzt, die mit einer Wasserflasche mit Metall-Trinkrohr ausgestattet ist und die außerdem erlaubt, über eine elektronische Schaltung die Anzahl der Kontakte der Zunge des Tieres mit dem Trinkrohr zu messen. Der Boden der Box besteht aus Metallstäben, die durch die Steuerungselektronik unter Strom gesetzt werden können. Die Tiere haben nach dem Einsetzen in die Box 5 min. Zeit, um das Trinkrohr zu finden und 50-mal daran zu lekken. Tiere, die das Trinkrohr innerhalb dieser Zeit nicht gefunden haben, werden für den Versuch nicht verwendet. Nach diesen 50 Leckvorgängen (lickings) werden Trinkrohr und Bodenstäbe für jeweils 5 sec unter Strom gesetzt (Gleichstrom 300 µA) und dann für weitere 5 sec. wieder freigegeben. Diese Folge wird alternierend für eine Zeit von 5 min. weitergeführt, wobei die Zahl der Trinkrohr-Kontakte des Tieres während der Reizstrom- und der reizstromfreien Phase auf verschiedenen elektronischen Zählern registriert werden.
Gruppen von jeweils acht Tieren pro Dosis werden mit den Prüfsubstanzen, die in einem 1 %igen Tylose-Gel aufgeschwemmt sind, oral per Schlundsonde behandelt. Das Injektionsvolumen beträgt 5 ml/kg Körpergewicht. Die Prüfung in der obg. Testapparatur erfolgt 1 und 2 Std. nach Applikation der Prüfsubstanzen. Die Anzahl der Trinkrohr-Kontakte in der Reizstrom-Phase dient als Prüf-Variable. Die mittlere Anzahl der Kontakte in dieser Phase bei der Kontrollgruppe wird zu 100 % gesetzt und Zu- oder Abnahme der Kontaktzahl bei den mit Prüfsubstanz behandelten Tieren wird prozentual in Bezug auf die Kontrollgruppe ausgedrückt.
Anxiolytika bewirken in diesem Test gewöhnlich eine deutliche Zunahme der Wasseraufnahme (lickings) in der Reizstrom-Phase gegenüber den unbehandelten Kontrollen. Falls eine lineare oder logarithmische Beziehung zwischen Dosis und Wirkung gegeben ist, wird eine ED + 100 (d.i. die Dosis, die eine Zunahme der Wasseraufnahme um 100 % gegenüber der Kontrollgruppe bewirkt) mittels Regressionsanalyse errechnet. Ist eine lineare Dosisabhängigkeit nicht gegeben, so wird eine minimal effektive Dosis (MED) bestimmt, d.i. die niedrigste Dosis der Prüfsubstanz, die noch eine statistisch signifikante Zunahme der Wasseraufnahme im Vergleich zur Kontrollgruppe bewirkt (p=0,05, DUNNET-Test).

Assay [4] concerns Wistar Ratten. Put plainly: Geller-Seifter conflict test. It counts as in vivo, Ratte. To be noted: for minimal effective dose: Rattus norvegicus, po, 0.5 h, p.o., 30 min before test, lowest dose with significant change of lever press rate, read-out: Geller Ratte MED.
Text: as §2
4. Geller-Seifter-Konflikt-Test
Methode (Geller, I.und Seifter, J., Psychopharmacologia 1 (1962), 482):
Männliche Wistar Ratten aus eigener Aufzucht (SPF Hattersheim) im Gewicht zwischen 240 und 370 g werden verwendet und Versuchsgruppen zu je 8 Tieren zugeordnet. Je 4 Tiere werden in Plastikkäfigen (56x38x20 cm) zusammengesetzt und durch abgewogene Futtermengen auf ca. 80 % ihres normalen Körpergewichts gehalten.
Die Tiere werden trainiert, in einer SKINNER-Box eine Taste zu drücken, um eine Belohnung in Form von gesüßter Kondensmilch zu erhalten. Die Box enthält zwei Tasten mit Mikroschaltern, einen Lautsprecher, ein Hauslicht, zwei Signallichter über den Tasten sowie einen Fußboden aus Metallstäben. Das Trainingsschema wurde der Arbeit von GELLER und SEIFTER (1962) in der Modifikation von DAVIDSON & COOK (Psychopharmacologia 15 (1969), 159-168) entlehnt: Jede Sitzung besteht aus vier 15-Minuten-Abschnitten, die alle aus einer 12-minütigen "Variable Interval" (VI) Phase und einer 3-minütigen "Fixed ration" (FR) Phase zusammengesetzt sind. Während der VI-Phase erhalten die Tiere auf Tastendruck Milchbelohnungen in einem durch einen Zufallsgenerator gesteuerten Intervall von 10-110 sec. mit einem Mittelwert um 60 15 sec. Während der FR-Phase erhalten die Tiere für jeden Tastendruck eine Belohnung, zusätzlich wird jedoch bei jedem 3. Tastendruck ein schmerzhafter elektrischer Reiz über die Fussbodenstäbe verabreicht, um eine Konfliktsituation zu erzeugen. Die Stromstärke des elektrischen Reizes wird für jedes Tier individuell so eingestellt (0,3-0,6 mA), daß die Tastendruckrate in der gesamten FR-Phase zwischen 5 und 15 liegt.
Das Training findet an 5 Tagen in der Woche statt, Versuche mit Prüfsubstanzen werden einmal wöchentlich durchgeführt. Da die Tiere als ihre eigene Kontrolle dienen, werden vor jedem Versuch mit Prüfsubstanzen mindestens zwei Vorwerte ohne Prüfsubstanz durchgeführt. Die zu prüfenden Verbindungen werden in einem 1 %igen Tylose-Gel suspendiert und 30 min vor Testbeginn oral per Schlundsonde in einem Volumen von 2 ml/kg verabreicht. Veränderungen der Tastendruckrate in der VI-Phase werden als Beeinflussung der motorischen Aktivität und Steigerung der Tastendruckrate in der FR-Phase werden als Anzeichnen für eine "Antikonflikt-" bzw. "anxiolytische" Wirkung gewertet. Bestimmt wird meist die minimal effektive Dosis (MED) der Prüfsubstanz, d.i. die niedrigste geprüfte Dosis, die noch eine statistisch signifikante Änderung der Tastendruckrate bewirkt (p=0,05; WILCOXON matched pairs signed rank test).

Regarding `CC(C)(C)Nc1nc(NC(C)(C)C)nc(N2CCCCC2)n1` [Beispiel 1, 2,4-Bis-(tert.butylamino)-6-piperidino-1,3,5-triazin], the ED50 in assay [1] was found to be 4.2 mg/kg; in assay [2], 32 mg/kg. Moreover, the “Ptz Maus ED 50” value in assay [1] (60 min) was 2.1 mg/kg. In addition, the figures for the minimal effective dose in the assay with Wistar Ratten [3] and in the assay on Wistar Ratten [4] were 10 mg/kg and 3 mg/kg, respectively. Further, the change in vivo at 10 mg/kg in the assay on Wistar Ratten [3] was 63%. Moreover, the entries for the “Geller Ratte prozentuale Zunahme der angenommenen Belohnungen (Milch)” value with Wistar Ratten [4] (3 mg/kg p.o.), in the assay with Wistar Ratten [4] (10 mg/kg p.o.) and in the assay with Wistar Ratten [4] (30 mg/kg p.o.) were 91%, 97% and 382%, respectively.
Turning to `CC(C)(C)Nc1nc(NC(C)(C)C)nc(N2CCCC2)n1` [Beispiel 2, 2,4-Bis-(tert.butylamino)-6-pyrrolidino-1,3,5-triazin], the ED50 in assay [1] stood at 2.4 mg/kg. The ED50 in assay [2] came out at 30 mg/kg. In the assay with Wistar Ratten [3], the minimal effective dose turned out to be 10 mg/kg, the change in vivo at 10 mg/kg is 61% and the change in vivo at 30 mg/kg turned out to be 74%.
`CC(C)(C)Nc1nc(NN2CCCCC2)nc(NC(C)(C)C)n1` [Beispiel 3, 2,4-Bis-(tert.butylamino)-6-(piperidino-amino)-1,3,5-triazin]: in assay [1], the ED50 worked out at 3.2 mg/kg. The ED50 in assay [2] was determined as 30 mg/kg. In the assay on Wistar Ratten [3], the minimal effective dose worked out at 10 mg/kg, the change in vivo at 10 mg/kg came to 75% and the change in vivo at 30 mg/kg was found to be 87%.
As for `CC(C)(C)Nc1nc(NN2CCOCC2)nc(NC(C)(C)C)n1` [Beispiel 4, 2,4-Bis-(tert.butylamino)-6-(morpholino-amino)-1,3,5-triazin], the values for the ED50 in assay [1] and in assay [2] were 8.3 mg/kg and 30 mg/kg, respectively. Further, the minimal effective dose in the assay with Wistar Ratten [3] came out at 10 mg/kg; in the assay with Wistar Ratten [4] it was 2.5 mg/kg. For the same compound, the change in vivo at 10 mg/kg with Wistar Ratten [3] came out at 82%. Further, the “Geller Ratte prozentuale Zunahme der angenommenen Belohnungen (Milch)” value in the assay with Wistar Ratten [4] (2,5 mg/kg p.o.) amounted to 22%.
In the case of `CC(C)(C)Nc1nc(NC(C)(C)C)nc(-n2ccnc2)n1` [Beispiel 5], the ED50 in assay [1] came out at 12.2 mg/kg; in assay [2], 30 mg/kg. The minimal effective dose in the assay with Wistar Ratten [3] turned out to be 30 mg/kg. Besides, the change in vivo at 30 mg/kg with Wistar Ratten [3] turned out to be 34%.
On to `CN(C)Nc1nc(NC(C)(C)C)nc(NC(C)(C)C)n1` [Beispiel 6, 2,4-Bis-(tert.butylamino)-6-(Nʹ-dimethylhydrazino)-1,3,5-triazin], for which the figures for the ED50 in assay [1] and in assay [2] were 10 mg/kg and 20.7 mg/kg, respectively. The minimal effective dose in the assay with Wistar Ratten [3] and in the assay with Wistar Ratten [4] was 10 mg/kg in each case. In addition, the change in vivo at 10 mg/kg in the assay with Wistar Ratten [3] worked out at 103%.
Consider `CCN(CC)c1nc(NC(C)(C)C)nc(NC(C)(C)C)n1` [Beispiel 7, 2,4-Bis-(tert.butylamino)-6-diethylamino-1,3,5-triazin], for which the ED50 in assay [1] was found to be 6.9 mg/kg; in assay [2], 14.5 mg/kg. Besides, the minimal effective dose with Wistar Ratten [3] was found to be 30 mg/kg. In addition, in the assay on Wistar Ratten [3], the change in vivo at 30 mg/kg amounted to 101%.
For the compound `CC(C)Nc1nc(NC(C)(C)C)nc(NC(C)(C)C)n1` [Beispiel 8, 2,4-Bis-(tert.butylamino)-6-isopropylamino-1,3,5-triazin], the results for the ED50 in assay [1] and in assay [2] were 2.3 mg/kg and 46.6 mg/kg, respectively. Moreover, the minimal effective dose with Wistar Ratten [3] and in the assay on Wistar Ratten [4] was 10 mg/kg throughout. For the same compound, the change in vivo at 10 mg/kg with Wistar Ratten [3] came out at 154%. Moreover, the change in vivo at 30 mg/kg with Wistar Ratten [3] turned out to be 230%. The “Geller Ratte prozentuale Zunahme der angenommenen Belohnungen (Milch)” value in the assay on Wistar Ratten [4] (10 mg/kg p.o.) came to 76%; in the assay on Wistar Ratten [4] (30 mg/kg p.o.), 91%.
`CC(C)(C)Nc1nc(NC2CCCC2)nc(NC(C)(C)C)n1` [Beispiel 9, 2,4-Bis-(tert.butylamino)-6-cyclopentylamino-1,3,5-triazin]: the ED50 in assay [1] was 10.3 mg/kg. Besides, the ED50 in assay [2] is 24.7 mg/kg. For the same compound, in the assay on Wistar Ratten [3], the minimal effective dose came out at 30 mg/kg and the change in vivo at 30 mg/kg came out at 68%.
For `CC(C)C(C)Nc1nc(NC(C)(C)C)nc(NC(C)(C)C)n1` (stereo not drawn) [Beispiel 10, 2,4-Bis-(tert.-butylamino)-6-(1,2-dimethylpropylamino)-1,3,5-triazin] the same measures were 30 mg/kg, 19.7 mg/kg, 30 mg/kg and 61%.

Values taken from patent EP0240854A1, “Bis-tert-butylamino-substituted 1,3,5-triazine derivatives, process for their preparation, medicaments containing these compounds, and their use” (HOECHST AKTIENGESELLSCHAFT, priority 1986, dated 1987).
